Measurements: patent US20030175824A1, “Drug candidate screening systems based on micropatterned hydrogels and microfluidic systems” (priority 2002, published 2003)

System: murine 3T3 fibroblasts
Settings: 0.05% sodium azide in PBS; cells stained red
Method: Hydrogel microstructures encapsulating murine 3T3 fibroblasts were fabricated using proximity photolithography. A PEG-diacrylate (PEG-DA, MW 575, Sigma-Aldrich or MW 4000, Polysciences) precursor solution containing 0.5% (w/w) DAROCUR 1173 (1-phenyl-2-hydroxy-2-methyl-1-propanone, Ciba Specialty Chemicals) as a photoinitiator was mixed with a cell suspension in cell culture media to produce a cell density about 4 to 5×10^6 cells/mL in the gel precursor solution. Fibroblasts were cultured on tissue culture polystyrene in Dulbecco's modified Eagle media (DMEM with 4.5 g/L glucose and 10% FBS, Sigma-Aldrich) and incubated at 37° C. in 5% CO2 and 95% air until near confluence. Cells were detached from culture flasks by trypsinization with 0.25% trypsin and 0.13% EDTA in phosphate buffered saline. Cells were transferred back to cell culture media and then added to the gel precursor solution. […]
The viability of individual cells in hydrogel microstructures with diameters of 600 μm and 50 μm was investigated using Live/Dead Viability/Cytotoxicity fluorescence assay (Molecular Probes, Inc.) that stains live cells green and dead cells red. […]
The viability of cells encapsulated in hydrogel was also measured using an MTT (3(4,5-dimethylthiazol-2-yl)-2,5-diphenyl tetrazolium bromide) assay.

With [N-]=[N+]=[N-] [sodium azide] the “effect on encapsulated cells (control, LIVE/DEAD staining)” value was “killed the cells”.
